Molecular target: ATP-binding cassette sub-family C member 2 (Rattus norvegicus, UniProt Q63120)
Experiment: TP_TRANSPORTER: Western in vivo SD rat, liver
Format: functional, organism-based, Sprague-Dawley

ATP-binding cassette sub-family C member 2, sequence (Q63120 whole entry): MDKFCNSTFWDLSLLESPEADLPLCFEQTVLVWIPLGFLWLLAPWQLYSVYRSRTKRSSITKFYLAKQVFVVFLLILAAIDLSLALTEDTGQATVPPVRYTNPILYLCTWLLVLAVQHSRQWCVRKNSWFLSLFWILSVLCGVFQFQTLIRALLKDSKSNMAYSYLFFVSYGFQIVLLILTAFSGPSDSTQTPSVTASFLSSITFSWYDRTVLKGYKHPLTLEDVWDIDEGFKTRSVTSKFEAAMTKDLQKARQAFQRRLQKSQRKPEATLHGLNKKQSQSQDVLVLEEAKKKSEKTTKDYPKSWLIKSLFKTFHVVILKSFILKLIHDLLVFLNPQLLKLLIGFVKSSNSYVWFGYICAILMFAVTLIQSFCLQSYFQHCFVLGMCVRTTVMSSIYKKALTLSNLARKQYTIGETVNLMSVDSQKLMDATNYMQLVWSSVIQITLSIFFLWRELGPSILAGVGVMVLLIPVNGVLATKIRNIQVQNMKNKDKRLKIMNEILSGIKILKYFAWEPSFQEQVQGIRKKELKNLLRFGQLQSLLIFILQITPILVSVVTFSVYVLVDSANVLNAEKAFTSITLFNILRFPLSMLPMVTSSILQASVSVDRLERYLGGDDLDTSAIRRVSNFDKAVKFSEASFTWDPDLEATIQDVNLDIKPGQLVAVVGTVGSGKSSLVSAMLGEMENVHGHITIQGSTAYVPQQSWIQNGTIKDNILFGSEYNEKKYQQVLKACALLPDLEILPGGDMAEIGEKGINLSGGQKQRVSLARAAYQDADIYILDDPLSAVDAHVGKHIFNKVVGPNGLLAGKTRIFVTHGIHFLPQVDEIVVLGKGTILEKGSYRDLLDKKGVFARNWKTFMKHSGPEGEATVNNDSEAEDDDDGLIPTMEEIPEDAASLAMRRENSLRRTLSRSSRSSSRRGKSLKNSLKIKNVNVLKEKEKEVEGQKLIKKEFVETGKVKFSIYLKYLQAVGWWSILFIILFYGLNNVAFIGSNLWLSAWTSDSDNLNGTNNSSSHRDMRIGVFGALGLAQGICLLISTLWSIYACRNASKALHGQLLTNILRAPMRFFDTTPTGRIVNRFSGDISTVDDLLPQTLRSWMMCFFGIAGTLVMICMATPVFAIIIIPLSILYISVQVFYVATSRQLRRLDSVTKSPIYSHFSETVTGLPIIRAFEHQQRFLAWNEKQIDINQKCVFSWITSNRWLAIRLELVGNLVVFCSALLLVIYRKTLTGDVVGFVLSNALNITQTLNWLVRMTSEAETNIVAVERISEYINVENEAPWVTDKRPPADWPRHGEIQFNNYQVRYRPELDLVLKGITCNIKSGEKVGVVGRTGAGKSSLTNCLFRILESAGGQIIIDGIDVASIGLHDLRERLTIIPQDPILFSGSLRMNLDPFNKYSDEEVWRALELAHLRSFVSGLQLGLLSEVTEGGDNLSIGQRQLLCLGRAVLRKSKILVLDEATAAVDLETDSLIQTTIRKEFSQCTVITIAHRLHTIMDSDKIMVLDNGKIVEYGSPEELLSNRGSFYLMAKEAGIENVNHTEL

SMILES	Activity
CCC1(c2ccccc2)C(=O)NC(=O)NC1=O [PHENOBARBITAL]	inducer [+]
CC(=O)[C@H]1[C@H](C#N)C[C@H]2[C@@H]3CC=C4C[C@@H](O)CC[C@]4(C)[C@H]3CC[C@@]21C [PREGNENOLONE CARBONITRILE]	inducer [+]

From ChEMBL document CHEMBL2074139, “Increase in bile flow and biliary excretion of glutathione-derived sulfhydryls in rats by drug-metabolizing enzyme inducers is mediated by multidrug resistance protein 2” (Toxicol Sci, 2002)
